Assay type in all cases: biochemical
Conditions in all cases: pH 8

For experiment [1], the target named is T1, FBS-AChE, immobilized (polyurethane coupled) (Bos taurus, UniProt P23795).
T1 sequence (P23795 31-613): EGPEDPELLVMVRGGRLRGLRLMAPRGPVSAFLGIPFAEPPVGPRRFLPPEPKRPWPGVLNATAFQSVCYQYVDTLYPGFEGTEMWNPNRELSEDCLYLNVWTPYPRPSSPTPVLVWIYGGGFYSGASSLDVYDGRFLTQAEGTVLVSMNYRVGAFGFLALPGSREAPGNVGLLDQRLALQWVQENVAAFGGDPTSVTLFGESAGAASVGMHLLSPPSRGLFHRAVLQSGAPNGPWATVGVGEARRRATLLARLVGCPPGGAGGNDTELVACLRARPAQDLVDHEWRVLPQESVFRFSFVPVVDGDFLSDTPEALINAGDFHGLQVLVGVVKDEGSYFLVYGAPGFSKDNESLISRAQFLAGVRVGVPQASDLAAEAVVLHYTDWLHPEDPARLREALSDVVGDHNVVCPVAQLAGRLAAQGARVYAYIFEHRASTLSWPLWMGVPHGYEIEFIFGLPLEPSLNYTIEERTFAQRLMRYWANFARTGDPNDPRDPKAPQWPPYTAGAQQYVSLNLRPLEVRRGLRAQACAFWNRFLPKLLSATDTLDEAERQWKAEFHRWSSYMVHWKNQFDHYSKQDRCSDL

The next experiment deals with T2, FBS-AChE, soluble (Bos taurus, UniProt P23795).
T2 sequence (P23795 31-613): T1 sequence (P23795 31-613)

Experiment [2] concerns the target Equine-BChE, immobilized (polyurethane coupled) (Equus caballus, UniProt P81908).
A further experiment addresses Equine-BChE, soluble (Equus caballus, UniProt P81908).

From EP1175509B1 (priority 1999, dated 2000) come the findings set out here.

Equine-BChE, soluble, sequence (P81908 whole entry): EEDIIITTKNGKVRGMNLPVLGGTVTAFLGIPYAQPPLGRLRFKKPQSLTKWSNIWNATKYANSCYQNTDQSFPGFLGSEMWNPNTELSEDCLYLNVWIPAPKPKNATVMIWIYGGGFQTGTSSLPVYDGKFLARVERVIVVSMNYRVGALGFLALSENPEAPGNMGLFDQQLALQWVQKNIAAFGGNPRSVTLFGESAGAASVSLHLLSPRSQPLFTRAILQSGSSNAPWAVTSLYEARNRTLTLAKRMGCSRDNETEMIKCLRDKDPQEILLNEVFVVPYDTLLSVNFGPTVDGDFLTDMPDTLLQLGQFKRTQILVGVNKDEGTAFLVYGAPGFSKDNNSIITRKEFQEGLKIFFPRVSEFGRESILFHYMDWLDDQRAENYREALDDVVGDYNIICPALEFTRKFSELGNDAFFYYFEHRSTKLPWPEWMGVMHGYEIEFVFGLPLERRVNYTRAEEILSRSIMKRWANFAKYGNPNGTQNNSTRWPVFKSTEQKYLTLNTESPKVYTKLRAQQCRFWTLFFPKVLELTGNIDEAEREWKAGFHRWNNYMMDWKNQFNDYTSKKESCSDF
Equine-BChE, immobilized (polyurethane coupled), sequence (P81908 whole entry): as above

Consider `CC(=O)SCC[N+](C)(C)C.[I-]` [acetylthiocholine, Acetylthiocholine iodide], for which, in experiment [1], the Kcat came to 983 s⁻¹, the Km (commonly the substrate concentration at which the rate is half of its maximum) was found to be 1090 µM and the Kss is 22 mM. Moreover, at FBS-AChE, soluble, the Kcat amounted to 4670 s⁻¹, the Michaelis-Menten constant (Km) was found to be 119 µM and the Kss is listed as 18 mM.

Turning to `CCCC(=O)SCC[N+](C)(C)C.[I-]` [butyrylthiocholine, S-butyrylthiocholine iodide], in experiment [2], the Kcat was determined as 300 s⁻¹, the Km worked out at 1200 µM and the Kss is on record as 16 mM. Further, at Equine-BChE, soluble, the B was 1.8, the Kcat was determined as 517 s⁻¹, the Michaelis-Menten constant (Km) amounted to 127 µM and the Kss is given as 1.5 mM.
